{
  "source": "paper PMC4706618",
  "about": "“Comparison of bactericidal and cytotoxic activities of trichogin analogs” (Data in Brief, 2015)",
  "key": {"HeLa cells [1]": {"system": "HeLa cells", "assay": "Cytotoxicity on HeLa cells, MTS/LDH", "assay_type": "cell-based, human", "settings": "24 h, in words", "method": "(§1) Twenty-four hours before the experiment, A431, HeLa, A549 and CC34-Lu cells were detached by means of trypsin treatment (Gibco), counted and seeded onto a 96 wells/plate (8×10^3 cells/well, Falcon). After purification, monocytes were seeded onto a 96 wells/plate (2×10^6/well) and left to adhere to the plastic; then cells were immediately treated with stimuli. PMNs and lymphocytes (2×10^6 cells/well) and HL60 cells (40×10^3) were seeded onto cell plates and subsequently treated. Different peptides were diluted in culture medium (from 20 μM to 1 μM) and added to the cells. As a […] control cells were treated with medium without stimuli. Twenty-four hours after treatment, the cell supernatant was collected for subsequent assay (LDH assay) and cells were tested using a CellTiter 96® AQueous One Solution Reagent (Promega). Plates were read with an ELISA reader (Amersham Biosciences) at 492 nm. Data were expressed as % of absorbance value compared to untreated cells (assumed as 100% viable). Alternatively, the EC50 (the concentration of drug where 50% of cells died) was calculated for each peptide and each kind of tested cell.\n(§2) 50 μl of the cell supernatant was tested with a CytoTox 96® Non-Radioactive Cytotoxicity Assay kit (Promega). EC50 (the concentration of drug that induced the lysis of 50% of the total cell number) was calculated for each peptide and each kind of tested cell."}, "[2]": {"system": "S. aureus, ATCC BAA-44 (methicillin-resistant strain)", "assay_type": "cell-based, Staphylococcus aureus", "settings": "after 24 h at 37 °C, broth microdilution in LB, 5×10^5 CFU/ml; ±SE, N≥4; peptide dose range 0–64 µM", "method": "(§3) E. coli ATCC 25922, the methicillin-resistant strain of S. aureus, ATCC BAA-44, P. aeruginosa ATCC 25668 and S. epidermidis ATCC 700565 was a kind gift of Prof. Elena Reddi (Dept. of Biology, University of Padova, Italy). Cultures were maintained in Luria Bertani (LB) agar. MICs (Minimal inhibitory concentrations) of the peptides were determined using the broth microdilution method. Two-fold serial dilutions of each peptide, from 1 to 64 μM, were prepared in LB and 50 μl per well were arranged in sterile 96-well plates (Falcon). Then, an aliquot of bacterial cell suspension was added to each well, at a final concentration of 5×10^5 CFU/ml."}, "[3]": {"system": "human cells (lymphocytes, PMNs, monocytes, HL60, HeLa, A431, A549, CCD34Lu)", "assay": "Cytotoxicity on human cells, MTS reduction and LDH release", "assay_type": "cell-based", "settings": "24 h, MTS/LDH EC50, all tested cells; in words", "method": "To monitor the possible differential cytocidal effect of trichogin and its analogs on human cells (healthy and cancer cells, non-leukocytes and leukocytes), we incubated the peptides with (i) primary human leukocytes (lymphocytes, PMNs and monocytes), freshly isolated from blood of healthy donors (ii) the monocytes-like HL60 cell line from human myeloid leukemia, and (iii) three tumor-derived non-leukocyte cells lines: HeLa ([…]), A431 (human epidermoid carcinoma) and A549 (human lung carcinoma) and the in vitro stabilized line CCD34Lu (from human normal lung).\nHeLa, A431 and CCD34-Lu cells were maintained in DMEM medium (Gibco), A549 in F12 medium (Gibco) and HL60 in RPMI medium (Gibco), supplemented with 10% FCS (Euroclone) and antibiotics (penicillin and streptomycin, 100 U/ml, Invitrogen) at 37 °C in a humidified atmosphere containing 5% (v/v) CO2; cells were split every 2–3 days. Human monocytes, polymorphonuclear leukocytes (PMNs) and lymphocytes were purified from buffy coats of healthy donors, kindly provided by the Centro Immunotrasfusionale, Hospital of Padova. Briefly, for monocyte purification, peripheral blood mononuclear cells (PBMC) were isolated from buffy coats of healthy donors by density gradient centrifugation on Ficoll-Paque Plus (GE Health care), which density is optimized for the isolation of mononuclear cells. Separate monocyte and T-cell fractions were obtained from PBMCs by Percoll density gradient centrifugation (GE Health care); residual lymphocytes were removed by incubation in 2% fetal calf serum (FCS) RPMI at 37 °C and subsequently washed to eliminate non adherent cells. Unless otherwise specified, cells were kept at 37 °C in a humidified atmosphere containing 5% (v/v) CO2 in RPMI-1640 supplemented with 10% FCS. For PMNs purification, the pellet of cells obtained after the centrifugation on Ficoll gradient was subjected to dextran erythrocytes precipitation; residual erythrocytes were removed by hypotonic lysis in 155 mM NH4Cl, 10 mM KHCO3, and […] Na2EDTA at pH 7.4 and cells were cultured in RPMI medium, supplemented with 10% FCS. For lymphocytes preparation, buffy coats were incubated with 50 μl/ml of Rosette Sep® Human T Cell Enrichment Cocktail (StemCell Technologies). Blood was then centrifuged over a Ficoll gradient and cells were cultured in RPMI medium, supplemented with 10% FCS.\nas §1, §2"}, "HeLa cells [4]": {"system": "HeLa cells", "assay": "Propidium iodide / Annexin V assay (FACS)", "assay_type": "cell-based, human", "settings": "18 h treatment, up to 20 μM, in words", "method": "HeLa cells were seeded on 24-wells plastic trays (Falcon) the day before the experiment, while HL60 were used directly. Cells were treated for 18 h with different trichogin analogs (up to 20 μM); then they were washed with PBS, detached with trypsin (in the case of HeLa cells), centrifuged at 200g for 5 min, suspended in 50 μl of incubation buffer and incubated for 15 min at 37 °C with 2 μl of Annexin-V-Fluos (Roche). Cells were finally diluted in 250 μl of the incubation buffer and 15 μl of Propidium Iodide (Sigma) were added to each sample just before the acquisition with FACSCanto® (Beckton Dickinson). Percentage of healthy (Annexin V^−/PI^−), apoptotic (Annexin V^+/PI^−), oncotic (Annexin V^−/PI^+) and late apoptotic/abortive oncotic (Annexin V^+/PI^+) cells of the total (10^6 cells) was calculated using FACSDiva Software."}, "[5]": {"system": "S. epidermidis ATCC 700565", "assay_type": "cell-based, Staphylococcus epidermidis", "settings": "after 24 h at 37 °C, broth microdilution in LB, 5×10^5 CFU/ml; ±SE, N≥4; peptide dose range 0–64 µM", "method": "as §3"}, "E. coli ATCC 25922 [6]": {"system": "E. coli ATCC 25922", "assay_type": "cell-based, Escherichia coli", "settings": "after 24 h at 37 °C, broth microdilution in LB, 5×10^5 CFU/ml; ±SE, N≥4; peptide dose range 0–64 µM", "method": "as §3"}, "[7]": {"system": "Gram^− and Gram^+ bacteria", "assay": "Antibacterial activity, all strains taken together", "assay_type": "cell-based", "settings": "additional U at position 6 or U1 replaced with L; in words", "method": "as §3"}, "P. aeruginosa ATCC 25668 [8]": {"system": "P. aeruginosa ATCC 25668", "assay_type": "cell-based, Pseudomonas aeruginosa", "settings": "after 24 h at 37 °C, broth microdilution in LB, 5×10^5 CFU/ml; ±SE, N≥4; peptide dose range 0–64 µM", "method": "as §3"}, "P. aeruginosa ATCC 25668 [9]": {"system": "P. aeruginosa ATCC 25668", "settings": "after 24 h; ±SE; § data for comparison; ref [6]; cited from earlier work", "method": "Table 2 MICs (μM±SE; N≥4; peptides dose range: 0–64 µM) after 24 h against two Gram^+ and two Gram^− bacterial strains (§ indicates data from for comparison). | column: P. aeruginosa"}, "[10]": {"system": "human cells (lymphocytes, PMNs, monocytes, HL60, HeLa, A431, A549, CCD34Lu)", "settings": "tumor and healthy human cells; ref Tavano et al., 2015 [6]; read-out: EC50 for killing tumor and healthy human cells; cited from earlier work", "from_the_text": "(§4) Peptaibiotics are a group of membrane active peptides of fungal origin. They typically contain α-aminoisobutyric acid (Aib; 1-letter code, U) and other non-coded residues (Toniolo and Brückner, 2009; Neumann et al., 2015; Benedett et al., 1982), [2], [3] stabilizing their helical structure. Peptaibols are peptaibiotics carrying a 1, 2-aminoalcohol at the C-terminus. When a fatty acid chain (of 8–10 carbon atoms) is present at their N-terminus, they are called lipopeptaibols (Toniolo et al., 2001; Degenkolb et al., 2003), [5]. We found (Tavano et al., 2015) that the lipo ..."}, "[11]": {"system": "Gram^− and Gram^+ bacteria", "settings": "both Gram^− and Gram^+ bacteria; ref Tavano et al., 2015 [6]; cited from earlier work", "from_the_text": "as §4"}, "[12]": {"system": "S. epidermidis ATCC 700565", "settings": "after 24 h; ±SE; § data for comparison; ref [6]; cited from earlier work", "method": "Table 2 MICs (μM±SE; N≥4; peptides dose range: 0–64 µM) after 24 h against two Gram^+ and two Gram^− bacterial strains (§ indicates data from for comparison). | column: S. epidermis"}, "[13]": {"system": "S. aureus, ATCC BAA-44 (methicillin-resistant strain)", "settings": "after 24 h; ±SE; § data for comparison; ref [6]; cited from earlier work", "method": "Table 2 MICs (μM±SE; N≥4; peptides dose range: 0–64 µM) after 24 h against two Gram^+ and two Gram^− bacterial strains (§ indicates data from for comparison). | column: S. aureus"}, "Erythrocytes": {"system": "Erythrocytes", "assay": "Hemolytic activity (hemoglobin release)", "assay_type": "cell-based", "settings": "erythrocytes treated 24 h, hemoglobin release read spectrophotometrically; in words", "method": "Fig. 7 Hemolytic activity of trichogin and its analogs. Erythrocytes were treated for 24 h with different concentration of peptides, centrifuged and hemoglobin release was measured spectrophotometrically. Hemolysis is expressed as percentage relative to positive control (erythrocytes treated with distilled water). § Indicates data from for comparison."}, "E. coli ATCC 25922 [14]": {"system": "E. coli ATCC 25922", "settings": "after 24 h; ±SE; § data for comparison; ref [6]; cited from earlier work", "method": "Table 2 MICs (μM±SE; N≥4; peptides dose range: 0–64 µM) after 24 h against two Gram^+ and two Gram^− bacterial strains (§ indicates data from for comparison). | column: E. coli"}},
  "note": "pEC50: −log10 of the molar value. Read-outs that look alike come from different tables or passages of the source. Non-standard residues stand in square brackets, D forms with d. Residues, ends and D or L forms follow the SMILES beside them. *: point of attachment. Leu(ol) = CC(C)C[C@H](N)CO; Octanoyl = CCCCCCCC(=O)*; Aib = CC(C)(N)C(=O)O",
  "data": [
    {"molecule": "CCCCCCCC(=O)NC(C)(C)C(=O)NCC(=O)N[C@@H](CC(C)C)C(=O)NC(C)(C)C(=O)N[C@@H](CCCCN)C(=O)NC(C)(C)C(=O)N[C@@H](CC(C)C)C(=O)NC(C)(C)C(=O)NCC(=O)N[C@H](C(=O)N[C@H](CO)CC(C)C)[C@@H](C)CC", "note": "[K5U6] (Octanoyl-[Aib]GL[Aib]K[Aib]L[Aib]GI[Leu(ol)])", "values": [
      {"measurement": "toxicity to HeLa cells compared with trichogin", "setting": "HeLa cells [1]", "result": "significantly more effective in killing HeLa cells"},
      {"measurement": "MIC S. aureus", "setting": "[2]", "result": "3.8 ± 2.4", "unit": "µM"},
      {"measurement": "cytotoxicity compared with trichogin or the corresponding analog", "setting": "[3]", "result": "increased cytotoxicity"},
      {"measurement": "type and extent of HeLa cell death, PI/Annexin V labeling", "setting": "HeLa cells [4]", "result": "predominantly a late apoptotic phenotype but also significant necrosis"},
      {"measurement": "MIC S. epidermis", "setting": "[5]", "result": "2.4 ± 0.9", "unit": "µM"},
      {"measurement": "MIC E. coli", "setting": "E. coli ATCC 25922 [6]", "result": ">64", "unit": "µM"},
      {"measurement": "antibacterial activity compared with the K-containing analogs", "setting": "[7]", "result": "failed to increase the antibacterial activity"},
      {"measurement": "MIC P. aeruginosa", "setting": "P. aeruginosa ATCC 25668 [8]", "result": ">64", "unit": "µM"}
    ]},
    {"molecule": "CCCCCCCC(=O)N[C@@H](CC(C)C)C(=O)NCC(=O)N[C@@H](CC(C)C)C(=O)NC(C)(C)C(=O)NCC(=O)NCC(=O)N[C@@H](CC(C)C)C(=O)NC(C)(C)C(=O)NCC(=O)N[C@H](C(=O)N[C@H](CO)CC(C)C)[C@@H](C)CC", "note": "[L1] (Octanoyl-LGL[Aib]GGL[Aib]GI[Leu(ol)])", "values": [
      {"measurement": "MIC S. aureus", "setting": "[2]", "result": "32 ± 0", "unit": "µM"},
      {"measurement": "cytotoxicity compared with trichogin or the corresponding analog", "setting": "[3]", "result": "weakly affected"},
      {"measurement": "type and extent of HeLa cell death, PI/Annexin V labeling", "setting": "HeLa cells [4]", "result": "as effective as trichogin in killing HeLa cells"},
      {"measurement": "MIC S. epidermis", "setting": "[5]", "result": ">64", "unit": "µM"},
      {"measurement": "MIC E. coli", "setting": "E. coli ATCC 25922 [6]", "result": ">64", "unit": "µM"},
      {"measurement": "MIC P. aeruginosa", "setting": "P. aeruginosa ATCC 25668 [8]", "result": ">64", "unit": "µM"}
    ]},
    {"molecule": "Oc-UGLUGGLUGILol [GA IV, trichogin GA IV, lipopeptaibol trichogin, Oc-UGLUGGLUGILol]", "values": [
      {"measurement": "MIC P. aeruginosa", "setting": "P. aeruginosa ATCC 25668 [9]", "result": ">64", "unit": "µM"},
      {"measurement": "pEC50", "setting": "[10]", "result": "5.30 to 5.40"},
      {"measurement": "antibacterial effects (none up to the stated concentration)", "setting": "[11]", "result": "> 64", "unit": "µM"},
      {"measurement": "MIC S. epidermis", "setting": "[12]", "result": ">64", "unit": "µM"},
      {"measurement": "MIC S. aureus", "setting": "[13]", "result": ">64", "unit": "µM"},
      {"measurement": "hemolytic effect", "setting": "Erythrocytes", "result": "weakly hemolytic"},
      {"measurement": "MIC E. coli", "setting": "E. coli ATCC 25922 [14]", "result": ">64", "unit": "µM"}
    ]}
  ]
}
